Laboratory results published in the NIST ThermoML archive (doi:10.1016/j.fluid.2009.11.007).

Assay: xn = mol fraction of the nth substance listed
Conditions: Gas, Vibrating tube method

CCCCCCCCCCCCCCCC(=O)O [hexadecanoic acid] + O=C=O
Conditions | mass density [kg/m3]
313 K, 12110 kPa, x1 = 0.0003534 | 724.5
313 K, 12150 kPa, x1 = 0.0003534 | 725.8
313 K, 12360 kPa, x1 = 0.0003534 | 731.2
313 K, 12530 kPa, x1 = 0.0003534 | 735.3
313 K, 12770 kPa, x1 = 0.0003534 | 741
313 K, 12930 kPa, x1 = 0.0003534 | 744.7
313 K, 13150 kPa, x1 = 0.0003534 | 749.3
313 K, 13330 kPa, x1 = 0.0003534 | 753
313 K, 13680 kPa, x1 = 0.0003534 | 759.8
313 K, 13940 kPa, x1 = 0.0003534 | 764.4
313 K, 14120 kPa, x1 = 0.0003534 | 767.7
313 K, 14410 kPa, x1 = 0.0003534 | 772.7
313 K, 14570 kPa, x1 = 0.0004968 | 774.5
313 K, 14650 kPa, x1 = 0.0003534 | 776.6
313 K, 14940 kPa, x1 = 0.0005357 | 780.5
313 K, 14960 kPa, x1 = 0.0004968 | 780.9
313 K, 15030 kPa, x1 = 0.0003534 | 782.7
313 K, 15570 kPa, x1 = 0.0003534 | 790.5
313 K, 15970 kPa, x1 = 0.0004968 | 795.6
313 K, 16020 kPa, x1 = 0.0005357 | 795.7
313 K, 16050 kPa, x1 = 0.0003534 | 797
313 K, 16230 kPa, x1 = 0.0005357 | 798.5
313 K, 16430 kPa, x1 = 0.0005357 | 801.3
313 K, 16610 kPa, x1 = 0.0005357 | 803.4
313 K, 16820 kPa, x1 = 0.0005357 | 806
313 K, 17030 kPa, x1 = 0.0005357 | 808.5
313 K, 17040 kPa, x1 = 0.0003534 | 810.1
313 K, 17070 kPa, x1 = 0.0006302 | 809.1
313 K, 17120 kPa, x1 = 0.0004968 | 810
313 K, 17500 kPa, x1 = 0.0006302 | 814.3
313 K, 17610 kPa, x1 = 0.0006348 | 816.9
313 K, 17620 kPa, x1 = 0.0004968 | 815.9
313 K, 17810 kPa, x1 = 0.0006348 | 819
313 K, 17970 kPa, x1 = 0.0006302 | 819.5
313 K, 18010 kPa, x1 = 0.0006348 | 821
313 K, 18030 kPa, x1 = 0.0003534 | 821.3
313 K, 18050 kPa, x1 = 0.0004968 | 820.6
313 K, 18070 kPa, x1 = 0.0005357 | 820
313 K, 18180 kPa, x1 = 0.0006348 | 823.1
313 K, 18300 kPa, x1 = 0.0006348 | 824.3
313 K, 18400 kPa, x1 = 0.0006348 | 825.2
313 K, 18510 kPa, x1 = 0.0006348 | 826.4
313 K, 18600 kPa, x1 = 0.0006348 | 827.4
313 K, 18700 kPa, x1 = 0.0006348 | 828.4
313 K, 18790 kPa, x1 = 0.0006348 | 829.4
313 K, 18910 kPa, x1 = 0.0006348 | 830.6
313 K, 18990 kPa, x1 = 0.0006302 | 830.2
313 K, 19000 kPa, x1 = 0.0004968 | 830.5
313 K, 19040 kPa, x1 = 0.0003534 | 831.8
313 K, 19070 kPa, x1 = 0.0005357 | 830.9
313 K, 19070 kPa, x1 = 0.0006348 | 832.2
313 K, 19960 kPa, x1 = 0.0004968 | 839.8
313 K, 19990 kPa, x1 = 0.0006302 | 839.7
313 K, 20050 kPa, x1 = 0.0003534 | 841.4
313 K, 20060 kPa, x1 = 0.0005357 | 840.4
313 K, 20090 kPa, x1 = 0.0006348 | 841.8
313 K, 20150 kPa, x1 = 0.0007923 | 843.3
313 K, 20300 kPa, x1 = 0.0007923 | 844.6
313 K, 20540 kPa, x1 = 0.0007923 | 846.7
313 K, 20740 kPa, x1 = 0.0007923 | 848.5
313 K, 20940 kPa, x1 = 0.0007923 | 850.2
313 K, 21000 kPa, x1 = 0.0006302 | 848.7
313 K, 21010 kPa, x1 = 0.0006348 | 849.8
313 K, 21020 kPa, x1 = 0.0004968 | 849.3
313 K, 21040 kPa, x1 = 0.0003534 | 850.3
313 K, 21050 kPa, x1 = 0.0005357 | 849.1
313 K, 21120 kPa, x1 = 0.0007923 | 851.7
313 K, 21300 kPa, x1 = 0.0007923 | 853.3
313 K, 21520 kPa, x1 = 0.0007923 | 855
313 K, 21700 kPa, x1 = 0.0008682 | 855
313 K, 21710 kPa, x1 = 0.0007923 | 856.7
313 K, 21970 kPa, x1 = 0.0007923 | 858.7
313 K, 21980 kPa, x1 = 0.0003534 | 858
313 K, 22020 kPa, x1 = 0.0004968 | 857.5
313 K, 22020 kPa, x1 = 0.0006348 | 858.2
313 K, 22020 kPa, x1 = 0.0008682 | 857.3
313 K, 22030 kPa, x1 = 0.0005357 | 857.3
313 K, 22050 kPa, x1 = 0.0006302 | 857.5
313 K, 22230 kPa, x1 = 0.0007923 | 860.8
313 K, 22470 kPa, x1 = 0.0008682 | 861
313 K, 22650 kPa, x1 = 0.0007923 | 864
313 K, 22790 kPa, x1 = 0.0004968 | 863.5
313 K, 22910 kPa, x1 = 0.0007923 | 865.9
313 K, 22930 kPa, x1 = 0.0008981 | 864.8
313 K, 22990 kPa, x1 = 0.0003534 | 866
313 K, 23000 kPa, x1 = 0.0006302 | 864.9
313 K, 23030 kPa, x1 = 0.0005357 | 865.1
313 K, 23050 kPa, x1 = 0.0006348 | 866
313 K, 23070 kPa, x1 = 0.0008682 | 865.7
313 K, 23280 kPa, x1 = 0.0008981 | 867.3
313 K, 23520 kPa, x1 = 0.0007923 | 868.9
313 K, 23550 kPa, x1 = 0.0008682 | 869.1
313 K, 23570 kPa, x1 = 0.0008981 | 869.5
313 K, 23790 kPa, x1 = 0.0006348 | 871.5
313 K, 23810 kPa, x1 = 0.0008981 | 871.1
313 K, 23990 kPa, x1 = 0.0005357 | 872.2
313 K, 24000 kPa, x1 = 0.0006302 | 872.3
313 K, 24010 kPa, x1 = 0.0004968 | 872.7
313 K, 24010 kPa, x1 = 0.0008981 | 872.6
313 K, 24020 kPa, x1 = 0.0007923 | 871.6
313 K, 24040 kPa, x1 = 0.0008682 | 872.7
313 K, 24050 kPa, x1 = 0.0003534 | 873.7
313 K, 24460 kPa, x1 = 0.0008682 | 875.8
313 K, 24640 kPa, x1 = 0.0005357 | 876.7
313 K, 24740 kPa, x1 = 0.0006302 | 877.4
313 K, 24780 kPa, x1 = 0.0008981 | 877.9
313 K, 25030 kPa, x1 = 0.0004968 | 879.6
318 K, 10140 kPa, x1 = 0.0001436 | 535.9
318 K, 10290 kPa, x1 = 0.0001436 | 551.9
318 K, 10550 kPa, x1 = 0.0001436 | 577.8
318 K, 10890 kPa, x1 = 0.0001436 | 604.2
318 K, 11230 kPa, x1 = 0.0001436 | 626.2
318 K, 11520 kPa, x1 = 0.0001436 | 641.2
318 K, 11870 kPa, x1 = 0.0001436 | 657.3
318 K, 12190 kPa, x1 = 0.0001436 | 670.6
318 K, 12480 kPa, x1 = 0.0001436 | 680.9
318 K, 12820 kPa, x1 = 0.0001436 | 692
318 K, 13110 kPa, x1 = 0.0001436 | 700.3
318 K, 13390 kPa, x1 = 0.0001436 | 708.3
318 K, 13730 kPa, x1 = 0.0001436 | 716.8
318 K, 14030 kPa, x1 = 0.0001436 | 723.9
318 K, 14520 kPa, x1 = 0.0001436 | 734.8
318 K, 14990 kPa, x1 = 0.0001436 | 744
318 K, 16050 kPa, x1 = 0.0001436 | 762.8
318 K, 17010 kPa, x1 = 0.0001436 | 777.4
318 K, 17690 kPa, x1 = 0.0001436 | 786.8
318 K, 18080 kPa, x1 = 0.0001436 | 791.8
318 K, 18990 kPa, x1 = 0.0001436 | 802.8
318 K, 19750 kPa, x1 = 0.0001436 | 811.4
318 K, 21720 kPa, x1 = 0.001828 | 831.3
318 K, 21990 kPa, x1 = 0.001828 | 833.9
318 K, 22510 kPa, x1 = 0.001828 | 838.4
318 K, 23010 kPa, x1 = 0.001828 | 842.7
318 K, 23350 kPa, x1 = 0.001112 | 845.5
318 K, 23520 kPa, x1 = 0.001828 | 846.9
318 K, 23920 kPa, x1 = 0.001112 | 849.8
318 K, 24050 kPa, x1 = 0.001112 | 850.8
318 K, 24050 kPa, x1 = 0.001828 | 850.9
318 K, 24090 kPa, x1 = 0.001112 | 851.1
318 K, 24270 kPa, x1 = 0.001112 | 852.5
318 K, 24430 kPa, x1 = 0.001112 | 853.7
318 K, 24510 kPa, x1 = 0.001112 | 854.2
318 K, 24560 kPa, x1 = 0.001828 | 854.7
318 K, 24610 kPa, x1 = 0.001112 | 855
318 K, 24770 kPa, x1 = 0.001112 | 856.3
318 K, 24930 kPa, x1 = 0.001112 | 857.5
318 K, 25040 kPa, x1 = 0.001112 | 858.3
